Laboratory results: ChEMBL document CHEMBL3227983, “N-Acetimidoyl- and N-formimidoylthienamycin derivatives: antipseudomonal beta-lactam antibiotics” (J Med Chem, 1979)

Tests used:
Staphylococcus aureus [1] = experiment: Antibacterial activity against penicillin-resistant Staphylococcus aureus MB2314 at 25 ug/disk; format: functional; settings: read-out: DIZ
Enterobacter cloacae [2] = experiment: Antibacterial activity against penicillin-sensitive Enterobacter cloacae MB2647 at 25 ug/disk; format: functional; settings: read-out: DIZ
Escherichia coli [3] = experiment: Antibacterial activity against penicillin-sensitive Escherichia coli MB2482 at 25 ug/disk; format: functional; settings: read-out: DIZ
[4] = Stability of the compound in amorphous form in 1 M PO4 assessed as time at which 90% of initial UV-absorbance remains at 60 mg/ml at pH 7 at 23 degC; format: physicochemical; settings: buffer
Escherichia coli [5] = experiment: Antibacterial activity against penicillin-resistant Escherichia coli MB2964 at 25 ug/disk; format: functional; settings: read-out: DIZ
[6] = Stability of the compound in amorphous form assessed as compound remaining after 1 month at 60 mg/ml at 23 degC in presence of 0.1 equiv of NaHCO3; format: physicochemical; settings: read-out: Stability
Enterobacter cloacae [7] = experiment: Antibacterial activity against penicillin-resistant Enterobacter cloacae MB2646 at 25 ug/disk; format: functional; settings: read-out: DIZ
Pseudomonas aeruginosa [8] = experiment: Antibacterial activity against penicillin-resistant Pseudomonas aeruginosa MB3350 at 25 ug/disk; format: functional; settings: read-out: DIZ
[9] = Stability of the compound in amorphous form in deionized water assessed as time at which 90% of initial UV-absorbance remains at 60 mg/ml at 23 degC; format: physicochemical; settings: buffer
Staphylococcus aureus [10] = experiment: Antibacterial activity against penicillin-sensitive Staphylococcus aureus MB2985 at 25 ug/disk; format: functional; settings: read-out: DIZ
Pseudomonas aeruginosa [11] = experiment: Antibacterial activity against penicillin-sensitive Pseudomonas aeruginosa MB2835 at 25 ug/disk; format: functional; settings: read-out: DIZ
[12] = Stability of the compound in amorphous form assessed as compound remaining after 6 months at 60 mg/ml at 23 degC in presence of 0.1 equiv of NaHCO3; format: physicochemical; settings: read-out: Stability
[13] = Stability of the compound in crystalline form in deionized water assessed as time at which 90% of initial UV-absorbance remains at 10 mg/ml at 23 degC; format: physicochemical; settings: buffer
[14] = Stability of the compound in crystalline form assessed as compound remaining after 6 months at 10 mg/ml at 23 degC in presence of 0.1 equiv of NaHCO3; format: physicochemical; settings: read-out: Stability
[15] = Drug degradation in crystalline form at 10 mg/ml; format: physicochemical; settings: read-out: Drug degradation
[16] = Stability of the compound in amorphous form assessed as compound remaining after 5 months at 60 mg/ml at 23 degC in presence of 0.1 equiv of NaHCO3; format: physicochemical; settings: read-out: Stability

SMILES	zone of inhibition at 25 µg/disc (Staphylococcus aureus [1]) [mm]	zone of inhibition at 25 µg/disc (Enterobacter cloacae [2]) [mm]	zone of inhibition at 25 µg/disc (Escherichia coli [3]) [mm]	Time [4] [h]	zone of inhibition at 25 µg/disc (Escherichia coli [5]) [mm]	remaining at 730.5 h, 60 mg/ml [6] [%]	zone of inhibition at 25 µg/disc (Enterobacter cloacae [7]) [mm]	zone of inhibition at 25 µg/disc (Pseudomonas aeruginosa [8]) [mm]	Time [9] [h]	zone of inhibition at 25 µg/disc (Staphylococcus aureus [10]) [mm]	zone of inhibition at 25 µg/disc (Pseudomonas aeruginosa [11]) [mm]	remaining at 4383 h, 60 mg/ml [12] [%]	Time [13] [h]	remaining at 4383 h, 10 mg/ml [14] [%]	degraded at 10 mg/ml [15] [%]	remaining at 3652.5 h, 60 mg/ml [16] [%]
C[C@@H](O)[C@H]1C(=O)N2C(C(=O)O)=C(SCCN)C[C@H]12 [THIENAMYCIN]	41	25.5	28.5	0.5	29	80	27	26	0.5	40	26	–	–	–	–	–
C[C@@H](O)[C@H]1C(=O)N2C(C(=O)O)=C(SCCN=CN)C[C@H]12 [IMIPENEM ANHYDROUS]	40.5	27	28.5	0.5	29.5	–	27.5	29	2.5	40	29	80	17	100	–	–
CC(=N)NCCSC1=C(C(=O)O)N2C(=O)[C@H]([C@@H](C)O)[C@H]2C1	40	27	28	0.5	29.5	–	27	28	5	38.5	28	–	–	–	< 1	100
